Data from US9834527B2, “Macrocyclic urea derivatives as inhibitors of TAFIa, their preparation and their use as pharmaceuticals” (SANOFI, priority 2013, dated 2017).
Where two headings read alike, the source gives them in different places.

Experiments:
TAFIa [1] = biological target: T1, TAFIa (Homo sapiens, UniProt Q96IY4); assay: TAFIa inhibition (Actichrome plasma TAFI Activity Kit, 15 minutes pre-incubation); type: biochemical; settings: 15 minutes pre-incubation at room temperature
T1 construct: purchased American Diagnostica 874TAFIA
T1 sequence (Q96IY4 115-423): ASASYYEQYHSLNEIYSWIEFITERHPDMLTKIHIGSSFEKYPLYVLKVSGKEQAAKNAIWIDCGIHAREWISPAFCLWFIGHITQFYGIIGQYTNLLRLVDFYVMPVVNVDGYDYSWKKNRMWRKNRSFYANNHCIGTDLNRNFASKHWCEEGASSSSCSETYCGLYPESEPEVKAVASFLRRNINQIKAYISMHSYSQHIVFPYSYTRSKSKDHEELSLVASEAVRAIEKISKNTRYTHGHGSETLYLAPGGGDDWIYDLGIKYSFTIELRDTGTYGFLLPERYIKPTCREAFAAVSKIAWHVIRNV
Method: The prepared substances were tested for TAFIa inhibition using the Actichrome plasma TAFI Activity Kit from American Diagnostica (Pr. No. 874). This entailed adding 28 μl of assay buffer (20 mM Hepes, 150 mM NaCl, pH 7.4) and 10 μl of TAFIa (American Diagnostica Pr. No. 874TAFIA; 2.5 μg/ml) to 2 μl of 2.5 mM DMSO solution of the substance and incubating in a 96 half-well microtiter plate at room temperature for 15 minutes. The enzyme reaction was started by adding 10 μl of TAFIa developer (prediluted 1:2 with assay buffer). The time course of the reaction was followed at 420 nm in a microtiter plate reader (SpectraMax plus 384; Molecular Devices) for 15 minutes.
The IC50 values were calculated from the averaged values (duplicate determination) of serial dilutions of the substance with the aid of the Softmax Pro software (version 4.8; Molecular Devices).

TAFIa [2] = biological target: T1, TAFIa; assay: TAFIa inhibition at variable preincubation times; type: biochemical; settings: for behaviour of the coefficient of IC50s with increasing pre-incubation time: increasing pre-incubation time (0 to 30 min)
Method: The prepared substances were tested for TAFIa inhibition using the Actichrome plasma TAFI Activity Kit from American Diagnostica (Pr. No. 874). This entailed adding 28 μl of assay buffer (20 mM Hepes, 150 mM NaCl, pH 7.4) and 10 μl of TAFIa (American Diagnostica Pr. No. 874TAFIA; 2.5 μg/ml) to 2 μl of 2.5 mM DMSO solution of the substance and incubating in a 96 half-well microtiter plate at room temperature for variable pre-incubation times (0, 5, 15 and 30 minutes). The enzyme reaction was started by adding 10 μl of TAFIa developer (prediluted 1:2 with assay buffer). The time course of the reaction was followed at 420 nm in a microtiter plate reader (SpectraMax plus 384; Molecular Devices) for 15 minutes.
The IC50 values were calculated from the averaged values (duplicate determination) of serial dilutions of the substance with the aid of the Softmax Pro software (version 4.8; Molecular Devices). The coefficient of IC50 values was determined by IC50 value at 0 min over IC50 value at x minutes, wherein x can be 0, 5, 15 or 30 minutes of pre-incubation time.

[3] = example compounds, read-out: IC50

IC50 (TAFIa [1]; [3])	behaviour of the coefficient of IC50s with increasing pre-incubation time (TAFIa [2])	Coefficient of IC50s (IC50 value at 0 min/IC50 value at x min preincubation time) (TAFIa [2]; pre-incubation time 0 min)	Coefficient of IC50s (IC50 value at 0 min/IC50 value at x min preincubation time) (TAFIa [2]; pre-incubation time 5 min)	Coefficient of IC50s (IC50 value at 0 min/IC50 value at x min preincubation time) (TAFIa [2]; pre-incubation time 15 min)	Coefficient of IC50s (IC50 value at 0 min/IC50 value at x min preincubation time) (TAFIa [2]; pre-incubation time 30 min)	IC50 (TAFIa [1]; comparison examples according to WO2009146802, read-out: IC50 of Comparison examples)	Structure (SMILES)
0.3 nM	increases	1	2.9	5.8	7.7		CC(C)[C@H]1COCCCCOc2ccc(cc2)C[C@@H](NC(=O)N[C@@](C)(C[C@H]2C[C@H](N)C2)C(=O)O)C(=O)N1 [Example 2, (S)-3-trans-(3-Amino-cyclobutyl)-2-[3-((9S,12R)-9-isopropyl-11-oxo-2,7-dioxa-10-aza-bicyclo[12.2.2]octadeca-1(17),14(18),15-trien-12-yl)-ureido]-2-methyl-propionic acid]
0.3 nM							CC(C)[C@H]1COCCCCOc2ccc(cc2)C[C@@H](NC(=O)N[C@@](C)(Cc2ccc(N)nc2)C(=O)O)C(=O)N1 [Example 1, (S)-3-(6-Amino-pyridin-3-yl)-2-[3-((9S,12R)-9-isopropyl-11-oxo-2,7-dioxa-10-aza-bicyclo[12.2.2]octadeca-1(17),14(18),15-trien-12-yl)-ureido]-2-methyl-propionic acid]
	stays nearly constant in time	1	0.5	1.3	1	4 nM	CC(C)[C@H]1COCCCCOc2ccc(cc2)C[C@@H](NC(=O)N[C@@H](C[C@H]2C[C@H](N)C2)C(=O)O)C(=O)N1 [reference compound]
1 nM							CC(C)[C@H]1COCCCCOc2ccc(cc2)C[C@@H](NC(=O)N[C@@](C)(C[C@@H]2CC[C@@H](N)C2)C(=O)O)C(=O)N1 [Example 3, (S)-3-((1R,3R)-3-Amino-cyclopentyl)-2-[3-((9S,12R)-9-isopropyl-11-oxo-2,7-dioxa-10-aza-bicyclo[12.2.2]octadeca-1(17),14(18),15-trien-12-yl)-ureido]-2-methyl-propionic acid]
1 nM							CC(C)[C@H]1COCCCCOC[C@@H](NC(=O)N[C@@](C)(Cc2ccc(N)nc2)C(=O)O)C(=O)N1 [Example 4, (S)-3-(6-Amino-pyridin-3-yl)-2-[3-((3S,6R)-3-isopropyl-5-oxo-1,8-dioxa-4-aza-cyclododec-6-yl)-ureido]-2-methyl-propionic acid]
